# Reference: US20240391954A1, “MC4R AGONIST PEPTIDES” (The Regents of the University of Michigan, priority 2021, published 2024)
# Positions of bridges follow the written chain, without caps; N, C: chain ends. Non-standard residues stand in square brackets, D forms with d. Residues, ends and D or L forms follow the SMILES beside them. 2Pal = N[C@@H](Cc1ccccn1)C(=O)O; 3Pal = N[C@@H](Cc1cccnc1)C(=O)O; 4Pal = N[C@@H](Cc1ccncc1)C(=O)O; Cit = NC(=O)NCCC[C@H](N)C(=O)O; Nle = CCCC[C@H](N)C(=O)O; Orn = NCCC[C@H](N)C(=O)O; Aib = CC(C)(N)C(=O)O
# Key:
# Assay type in all cases: cell-based
# [1] = biological target: T1, human MC3R (Homo sapiens, UniProt P41968); experiment: split-luciferase cAMP sensor assay, agonist mode (measurement window 1), hMC3R; conditions: for EC50: HEK-293 cells stably expressing hMC3R, read-out: MC3R cAMP EC50; for EC50 / Emax: agonist mode; for MC4R selectivity vs MC3R: MC4R versus MC3R; for Emax: % maximal activation, read-out: MC3R cAMP % max activation
# T1 construct: expressed in transfected cells; host or cells: HEK-293 cells stably expressing the GScAMP22F split-luciferase cAMP sensor (parent reporter line from Promega); MC3R clone generated in-house, G418 selection
# T1 sequence (P41968 whole entry): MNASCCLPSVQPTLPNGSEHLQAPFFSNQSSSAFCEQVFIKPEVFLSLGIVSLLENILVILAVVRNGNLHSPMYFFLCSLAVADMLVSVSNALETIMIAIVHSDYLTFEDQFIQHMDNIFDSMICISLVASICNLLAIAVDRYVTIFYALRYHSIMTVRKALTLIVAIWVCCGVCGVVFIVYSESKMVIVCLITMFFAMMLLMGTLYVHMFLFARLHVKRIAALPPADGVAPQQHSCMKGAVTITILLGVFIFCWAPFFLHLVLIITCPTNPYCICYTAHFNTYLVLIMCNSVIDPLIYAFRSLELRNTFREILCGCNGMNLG
# Procedure, shortened: (§1)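 Live stable cell lines carrying receptor plus GloSensor cAMP22f split-luciferase, loaded with 4% D-luciferin in serum-free medium (~1% serum estimated during assay). Luminescence recorded during in-line peptide addition; direct agonist effect read in window 1, with 20 μM forskolin as normalization reference. EC50 from four-parameter sigmoid fit.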
# [2] = biological target: T2, human MC4R (Homo sapiens, UniProt P32245); experiment: split-luciferase cAMP sensor assay, agonist mode (measurement window 1), hMC4R; conditions: agonist mode; for Emax: % maximal activation, read-out: MC4R cAMP % max activation; for EC50: HEK-293 cells stably expressing hMC4R, read-out: MC4R cAMP EC50
# T2 construct: host or cells: HEK-293 cells stably expressing the GScAMP22F split-luciferase cAMP sensor and hMC4R, G418 selection
# T2 sequence (P32245 whole entry): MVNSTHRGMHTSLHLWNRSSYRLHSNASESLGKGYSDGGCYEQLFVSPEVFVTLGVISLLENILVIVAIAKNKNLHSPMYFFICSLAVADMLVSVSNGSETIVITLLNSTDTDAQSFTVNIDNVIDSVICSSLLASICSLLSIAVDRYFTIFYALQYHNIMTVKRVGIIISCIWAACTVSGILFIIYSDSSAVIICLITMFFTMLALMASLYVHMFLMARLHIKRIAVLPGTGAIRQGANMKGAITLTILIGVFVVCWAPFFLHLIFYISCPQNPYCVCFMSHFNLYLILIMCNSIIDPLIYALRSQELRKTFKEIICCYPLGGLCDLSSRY
# Procedure, shortened: as §1
# [3] = biological target: T3, human MC1R (Homo sapiens, UniProt Q01726); experiment: split-luciferase cAMP sensor assay, agonist mode, hMC1R; conditions: MC4R versus MC1R
# T3 construct: expressed in transfected cells; host or cells: HEK-293 cells stably expressing hMC1R and the GScAMP22F cAMP sensor
# T3 sequence (Q01726 whole entry): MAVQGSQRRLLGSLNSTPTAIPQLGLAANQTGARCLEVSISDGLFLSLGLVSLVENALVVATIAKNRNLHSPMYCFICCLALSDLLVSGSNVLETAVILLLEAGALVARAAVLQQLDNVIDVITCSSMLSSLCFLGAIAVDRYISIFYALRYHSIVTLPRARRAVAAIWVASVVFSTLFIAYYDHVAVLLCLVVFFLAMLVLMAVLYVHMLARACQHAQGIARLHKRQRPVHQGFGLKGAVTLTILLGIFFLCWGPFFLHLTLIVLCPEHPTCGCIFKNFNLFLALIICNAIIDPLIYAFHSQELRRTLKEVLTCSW
# Procedure, shortened: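 HEK-293 cells stably expressing hMC1R and the GScAMP22F split-luciferase cAMP sensor, preloaded 120 min at 37° C with D-luciferin in serum-free medium. Peptide responses were taken as peak luminescence over 2-13 min minus 2-min baseline, normalized to the α-MSH ECmax. EC50 was obtained from a four-parameter variable-slope fit.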
Structure (SMILES),EC50 [1] [nM],MC4R selectivity vs MC3R [1],Emax [2] [%],MC4R selectivity vs MC1R [3],Emax [1] [%],EC50 [2] [nM]
"CC(=O)N[C@@H](CCCNC(=N)N)C(=O)N[C@H]1CSSC[C@@H](C(N)=O)NC(=O)[C@H](Cc2ccccc2)NC(=O)[C@H](CCCNC(=N)N)NC(=O)[C@@H](Cc2ccccc2)NC(=O)[C@H](Cc2cccnc2)NC(=O)C(C)(C)NC1=O [CTX-1605, Arg-cyclo(Cys-Aib-Pal(3′)-D-Phe-Arg-Phe-Cys)] (Ac-RC[Aib][3Pal][dF]RFC-NH2; disulfide 2-8 (inferred))",> 10000,>300,85,0.14,–,–
"CC(=O)N[C@@H](CCCNC(=N)N)C(=O)N[C@H]1CSSC[C@@H](C(N)=O)NC(=O)[C@H](Cc2ccccc2)NC(=O)[C@H](CCCNC(=N)N)NC(=O)[C@@H](Cc2ccccc2)NC(=O)[C@H](Cc2ccccn2)NC(=O)C(C)(C)NC1=O [CTX-1604, Arg-cyclo(Cys-Aib-Pal(2′)-D-Phe-Arg-Phe-Cys)] (Ac-RC[Aib][2Pal][dF]RFC-NH2; disulfide 2-8 (inferred))",–,0.11,96,3.66,12,–
"CCCC[C@H](NC(=O)[C@H](CCCNC(=N)N)NC(C)=O)C(=O)N[C@H]1CSSC[C@@H](C(N)=O)NC(=O)[C@@H](Cc2c[nH]c3ccccc23)NC(=O)[C@H](CCCNC(=N)N)NC(=O)[C@@H](Cc2ccccc2)NC(=O)[C@H](CCCNC(N)=O)NC1=O [CTX-1608, Arg-Nle-cyclo(Cys-Cit-D-Phe-Arg-D-Trp-Cys)] (Ac-R[Nle]C[Cit][dF]R[dW]C-NH2; disulfide 3-8 (inferred))",–,0.95,79,2.07,19,288
"CC(=O)N[C@@H](CCCNC(=N)N)C(=O)N[C@H]1CSSC[C@@H](C(N)=O)NC(=O)[C@@H](Cc2c[nH]c3ccccc23)NC(=O)[C@H](CCCNC(=N)N)NC(=O)[C@@H](Cc2ccccc2)NC(=O)[C@H](Cc2c[nH]cn2)NC(=O)C(C)(C)NC1=O [CTX-1296, Arg-cyclo(Cys-Aib-His-D-Phe-Arg-D-Trp-Cys)]",10,22,99,11,93,–
"C[C@H]1NC(=O)CSC[C@@H](C(N)=O)NC(=O)[C@H](Cc2c[nH]c3ccccc23)NC(=O)[C@H](CCCNC(=N)N)NC(=O)[C@@H](Cc2ccccc2)NC(=O)[C@H](CCCNC(N)=O)NC1=O [CTX-1643, Thioether-cyclo(D-Ala-Cit-D-Phe-Arg-Trp-Cys)] ({CH2CO}-[dA][Cit][dF]RWC-NH2; thioether N-6)",–,133,111,261,81,–
"CC(=O)N[C@@H](CCCNC(=N)N)C(=O)N[C@H]1CSSC[C@@H](C(N)=O)NC(=O)[C@H](Cc2c[nH]c3ccccc23)NC(=O)[C@H](CCCNC(N)=O)NC(=O)[C@@H](Cc2ccccc2)NC(=O)[C@H](CCCNC(=N)N)NC(=O)C(C)(C)NC1=O [CTX-1270, Arg-cyclo(Cys-Aib-Arg-D-Phe-Cit-Trp-Cys)] (Ac-RC[Aib]R[dF][Cit]WC-NH2; disulfide 2-8)",52,1.88,98,2.49,14,–
"CCCC[C@H](NC(=O)[C@H](CCCNC(=N)N)NC(C)=O)C(=O)N[C@H]1CSSC[C@@H](C(N)=O)NC(=O)[C@@H](Cc2c[nH]c3ccccc23)NC(=O)[C@H](CCCNC(=N)N)NC(=O)[C@@H](Cc2ccccc2)NC(=O)[C@H](CCCNC(=N)N)NC1=O [CTX-1616, Arg-Nle-cyclo(Cys-Arg-D-Phe-Arg-D-Trp-Cys)] (Ac-R[Nle]CR[dF]R[dW]C-NH2; disulfide 3-8)",–,3.78,93,1.51,78,16
"CC(=O)N[C@H]1CSSC[C@@H](C(N)=O)NC(=O)[C@H](Cc2c[nH]c3ccccc23)NC(=O)[C@H](CCCNC(=N)N)NC(=O)[C@@H](Cc2ccccc2)NC(=O)[C@H](CCCNC(=N)N)NC(=O)CNC1=O [CTX-1629, cyclo(Cys-Gly-Arg-D-Phe-Arg-Trp-Cys)] (Ac-CGR[dF]RWC-NH2; disulfide 1-7)",13,19,102,15,83,–
"CC(=O)N[C@@H](CCCNC(=N)N)C(=O)N[C@H]1CSSC[C@@H](C(N)=O)NC(=O)[C@H](Cc2c[nH]c3ccccc23)NC(=O)[C@H](CCCNC(=N)N)NC(=O)[C@@H](Cc2ccccc2)NC(=O)[C@H](CCCNC(N)=O)NC(=O)C(C)(C)NC1=O [CTX-1289, Arg-cyclo(Cys-Aib-Cit-D-Phe-Arg-Trp-Cys)]",–,30,93,130,21,–
"CC(=O)N[C@@H](CCCNC(=N)N)C(=O)N[C@H]1CSSC[C@@H](C(N)=O)NC(=O)[C@H](Cc2ccccc2)NC(=O)[C@H](CCCNC(=N)N)NC(=O)[C@@H](Cc2ccccc2)NC(=O)[C@H](CCCN)NC(=O)C(C)(C)NC1=O [CTX-1602, Arg-cyclo(Cys-Aib-Orn-D-Phe-Arg-Phe-Cys)] (Ac-RC[Aib][Orn][dF]RFC-NH2; disulfide 2-8)",–,3.44,97,3.65,80,–
"CC1(C)NC(=O)CSC[C@@H](C(N)=O)NC(=O)[C@H](Cc2c[nH]c3ccccc23)NC(=O)[C@H](CCCNC(=N)N)NC(=O)[C@@H](Cc2ccccc2)NC(=O)[C@H](CCCNC(=N)N)NC1=O [CTX-1648, Thioether-cyclo(Aib-Arg-D-Phe-Arg-Trp-Cys)] ({CH2CO}-[Aib]R[dF]RWC-NH2; thioether N-6)",72,63,101,13,91,–
"CC(=O)N[C@H]1CSSC[C@@H](C(N)=O)NC(=O)[C@H](Cc2c[nH]c3ccccc23)NC(=O)[C@H](CCCNC(=N)N)NC(=O)[C@@H](Cc2ccccc2)NC(=O)[C@H](CCCNC(=N)N)NC(=O)C(C)(C)NC1=O [CTX-1632, cyclo(Cys-Aib-Arg-D-Phe-Arg-Trp-Cys)] (Ac-C[Aib]R[dF]RWC-NH2; disulfide 1-7)",–,36,105,3.18,77,–
"CC(=O)N[C@H]1CSSC[C@@H](C(N)=O)NC(=O)[C@H](Cc2c[nH]c3ccccc23)NC(=O)[C@H](CCCNC(=N)N)NC(=O)[C@@H](Cc2ccccc2)NC(=O)[C@H](CCCNC(=N)N)NC(=O)[C@@H](C)NC1=O [CTX-1627, cyclo(Cys-D-Ala-Arg-D-Phe-Arg-Trp-Cys)] (Ac-C[dA]R[dF]RWC-NH2; disulfide 1-7 (inferred))",3.7,2.47,104,9.33,98,1.4
"CCCC[C@H](NC(=O)[C@H](CCCNC(=N)N)NC(C)=O)C(=O)N[C@H]1CSSC[C@@H](C(N)=O)NC(=O)[C@H](Cc2c[nH]c3ccccc23)NC(=O)[C@H](CCCNC(=N)N)NC(=O)[C@@H](Cc2ccccc2)NC(=O)[C@H](Cc2ccncc2)NC1=O [CTX-1621, Arg-Nle-cyclo(Cys-Pal(4′)-D-Phe-Arg-Trp-Cys)] (Ac-R[Nle]C[4Pal][dF]RWC-NH2; disulfide 3-8 (inferred))",–,13,92,82,15,2.9
